The values that follow come from ChEMBL document CHEMBL1201862, “PubChem BioAssay data set” (2004).

As usually defined, the AC50 is the midpoint of the concentration-response curve, whichever way the signal moves.

In experiment [1] the test system is HEK293. The experiment is described as follows: NOD1 signaling inhibitors, primary screen, cell-based, luminescence, uHTS (AID 1578). Type of experiment: functional. The conditions noted are these: Homo sapiens.
Experiment [2] has as its target Tumor necrosis factor (Homo sapiens, UniProt P01375). The experiment is described as follows: TNFa-triggered NF-kB activation inhibitors, SAR follow-up, cell-based, revised (AID 2337). Type of experiment: functional.
For experiment [3], the target named is Nucleotide-binding oligomerization domain-containing protein 2 (Homo sapiens, UniProt Q9HC29). The experiment is described as follows: NOD2 signaling inhibitors, cell-based, luminescence, uHTS, HEK293 (AID 1566). Type of experiment: functional.
The test system of experiment [4] is HEK293. The experiment is described as follows: cells. It is filed as functional, cell-based. The conditions noted are these: Homo sapiens.
Experiment [5] deals with HEK293. Briefly: cells. Type of experiment: functional, cell-based. The conditions noted are these: Homo sapiens. This is another data set of the same source.
Experiment [6] addresses Nucleotide-binding oligomerization domain-containing protein 1 (Homo sapiens, UniProt Q9Y239). Briefly: NOD1 signaling inhibitors, SAR follow-up, revised (AID 2333). Type of experiment: functional.
The subject of experiment [7] is HEK293. Briefly: cells. Particulars: Homo sapiens.
Experiment [8] relates to HEK293. Briefly: NOD2 signaling inhibitors in MDP-stimulated cells, cell-based, uHTS, luminescence (AID 2001). The conditions noted are these: Homo sapiens. It is filed as functional.
Experiment [9] has as its system HEK293. Briefly: cells. It is filed as functional, cell-based. Particulars: Homo sapiens. The source holds these as a separate data set.
Experiment [10] concerns the target UDP-galactopyranose mutase (Mycobacterium tuberculosis, UniProt P9WIQ1). The experiment is described as follows: Inhibitors of Mycobacterium tuberculosis UDP-galactopyranose mutase (UGM) enzyme Measured in Biochemical System Using Plate Reader - 2105-02_Inhibitor_Dose_CherryPick_Activity. [Related pubchem assays (depositor defined):AID504439].
For experiment [11], the target named is T1, Corticotropin-releasing factor receptor 2/Corticotropin-releasing factor-binding protein (Homo sapiens, UniProt P24387+Q13324).
T1 sequence (Q13324 whole entry): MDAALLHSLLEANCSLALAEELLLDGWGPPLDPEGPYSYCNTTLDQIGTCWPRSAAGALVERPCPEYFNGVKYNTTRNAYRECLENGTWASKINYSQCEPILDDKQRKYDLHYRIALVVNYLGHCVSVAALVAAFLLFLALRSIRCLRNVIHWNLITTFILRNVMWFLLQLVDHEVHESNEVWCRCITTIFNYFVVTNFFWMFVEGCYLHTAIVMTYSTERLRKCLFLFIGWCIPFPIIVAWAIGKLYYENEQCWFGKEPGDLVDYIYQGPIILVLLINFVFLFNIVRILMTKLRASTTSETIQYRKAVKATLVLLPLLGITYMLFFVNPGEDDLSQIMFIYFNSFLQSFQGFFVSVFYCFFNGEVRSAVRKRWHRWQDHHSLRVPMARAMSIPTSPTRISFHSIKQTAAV
T1 sequence (P24387 whole entry): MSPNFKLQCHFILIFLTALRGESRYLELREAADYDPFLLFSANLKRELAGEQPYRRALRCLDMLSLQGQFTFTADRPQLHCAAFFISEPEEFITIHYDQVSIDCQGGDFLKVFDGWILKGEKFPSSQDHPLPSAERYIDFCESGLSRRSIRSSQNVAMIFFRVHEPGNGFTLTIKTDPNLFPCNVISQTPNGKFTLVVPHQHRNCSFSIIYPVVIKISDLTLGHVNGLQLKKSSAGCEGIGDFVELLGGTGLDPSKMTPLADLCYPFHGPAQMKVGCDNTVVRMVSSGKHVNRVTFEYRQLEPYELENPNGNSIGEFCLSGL
The experiment is described as follows: activators of CRF receptor 2 with binding protein – uHTS hits, confirmation (AID 602473). Particulars: read-out: EC50_Mean. It is filed as functional.

The nature of experiment [12]: Luminescence Cell-Based Dose Retest to Confirm Inhibitors of Cancer Stem Cells. [Related pubchem assays (depositor defined):AID2717, AID2721]. Particulars: Homo sapiens. Type of experiment: functional.
For experiment [13], the target named is T1, Corticotropin-releasing factor receptor 2/Corticotropin-releasing factor-binding protein. The experiment is described as follows: Dose Response confirmation of uHTS hits for small molecule antagonists of the CRF-binding protein and CRF-R2 receptor complex. It is filed as functional. The conditions noted are these: read-out: IC50_Mean.
The nature of experiment [14]: CRF-BP/CRF-R2 complex antagonists, dose response, cell-based, uHTS hits, 384-well (AID 651639). The conditions noted are these: read-out: IC50_Mean. It is filed as functional, Homo sapiens.
The nature of experiment [15]: cytotoxicity in HMLE control line with eGFP shRNA, dose response, counter-screen for HMLE_sh_ECad selective toxicity project, cell-based, HMLE_sh_eGFP, luminescence (AID 463074).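 Further: HMLE human mammary epithelial cells expressing control shRNA against eGFP.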 It is filed as functional, Homo sapiens. In general terms: A counterscreen serves to expose hits that act by an unwanted route or on another target.
Experiment [16] can be described thus: inhibitors of Bluetongue virus cytopathic effect, confirmation, arbovirus, BSR cells (AID 1250).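 Further: protection from viral cytopathic effect measured as cell viability by ATP luminescence.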 Type of experiment: functional.
Experiment [17] has as its target T2, Heat shock factor protein 1 (Mus musculus, UniProt P38532).
T2 sequence (P38532 whole entry): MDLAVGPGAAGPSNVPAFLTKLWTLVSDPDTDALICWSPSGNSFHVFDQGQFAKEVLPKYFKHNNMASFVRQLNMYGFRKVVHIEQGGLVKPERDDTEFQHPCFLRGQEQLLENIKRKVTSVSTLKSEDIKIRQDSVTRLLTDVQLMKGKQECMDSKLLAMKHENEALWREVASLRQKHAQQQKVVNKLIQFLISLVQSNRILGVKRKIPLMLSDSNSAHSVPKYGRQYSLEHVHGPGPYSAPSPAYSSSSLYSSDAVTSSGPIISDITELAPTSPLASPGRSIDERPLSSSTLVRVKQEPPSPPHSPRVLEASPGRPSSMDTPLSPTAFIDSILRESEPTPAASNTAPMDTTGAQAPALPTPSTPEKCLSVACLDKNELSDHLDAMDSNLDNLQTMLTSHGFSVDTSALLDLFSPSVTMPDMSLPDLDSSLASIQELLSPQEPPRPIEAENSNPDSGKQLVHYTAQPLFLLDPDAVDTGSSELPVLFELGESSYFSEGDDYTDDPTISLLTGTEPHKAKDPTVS
Briefly: inhibition of MG132-induced HSE-luciferase signal, confirmation, cell-based, NIH3T3, luminescence, dose retest (AID 2382).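 Further: NIH3T3 fibroblasts with HSF1-driven luciferase reporter stressed by proteasome inhibitor MG132; luminescence from HSF1-driven luciferase expression after 8 hours of MG132 stress.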 It is filed as functional.

For experiment [18], the target named is T3, Mu-type opioid receptor (Homo sapiens, UniProt P35372). The experiment is described as follows: SAR Analysis of Agonists of the MOR Receptor using an Image-Based Assay - Set 2. [Related pubchem assays (depositor defined):AID1777, AID1785, AID1786, AID1966, AID2133, AID2136, AID2284, AID2285, AID2352]. It is filed as functional.
The target of experiment [19] is T4, Delta-type opioid receptor (Homo sapiens, UniProt P41143). Briefly: SAR Analysis of Antagonists of the DOR Receptor using an Image-Based Assay - Set 2. [Related pubchem assays (depositor defined):AID1777, AID1785, AID1786, AID1966, AID2133, AID2136, AID2284, AID2285, AID2357]. Type of experiment: functional.
Experiment [20] concerns the target T4, Delta-type opioid receptor. The experiment is described as follows: SAR Analysis of Agonists of the DOR Receptor using an Image-Based Assay - Set 2. [Related pubchem assays (depositor defined):AID1777, AID1785, AID1786, AID1966, AID2133, AID2136, AID2284, AID2285, AID2370]. It is filed as functional.
For experiment [21], the target named is T3, Mu-type opioid receptor. Briefly: SAR Analysis of Antagonists of the MOR Receptor using an Image-Based Assay - Set 2. [Related pubchem assays (depositor defined):AID1777, AID1785, AID1786, AID1966, AID2133, AID2136, AID2284, AID2285, AID2420]. Type of experiment: functional.
For experiment [22], the target named is T5, Intestinal-type alkaline phosphatase (Homo sapiens, UniProt P09923). Briefly: human intestinal alkaline phosphatase activators, dose response, biochemical, luminescence, uHTS hits (AID 463120). It is filed as functional.
For experiment [23], the target named is Intestinal-type alkaline phosphatase (Mus musculus, UniProt P24822). Briefly: PubChem AID 488874. It is filed as functional.
Experiment [24] deals with T6, Alkaline phosphatase, tissue-nonspecific isozyme (Homo sapiens, UniProt P05186).
T6 sequence (P05186 whole entry): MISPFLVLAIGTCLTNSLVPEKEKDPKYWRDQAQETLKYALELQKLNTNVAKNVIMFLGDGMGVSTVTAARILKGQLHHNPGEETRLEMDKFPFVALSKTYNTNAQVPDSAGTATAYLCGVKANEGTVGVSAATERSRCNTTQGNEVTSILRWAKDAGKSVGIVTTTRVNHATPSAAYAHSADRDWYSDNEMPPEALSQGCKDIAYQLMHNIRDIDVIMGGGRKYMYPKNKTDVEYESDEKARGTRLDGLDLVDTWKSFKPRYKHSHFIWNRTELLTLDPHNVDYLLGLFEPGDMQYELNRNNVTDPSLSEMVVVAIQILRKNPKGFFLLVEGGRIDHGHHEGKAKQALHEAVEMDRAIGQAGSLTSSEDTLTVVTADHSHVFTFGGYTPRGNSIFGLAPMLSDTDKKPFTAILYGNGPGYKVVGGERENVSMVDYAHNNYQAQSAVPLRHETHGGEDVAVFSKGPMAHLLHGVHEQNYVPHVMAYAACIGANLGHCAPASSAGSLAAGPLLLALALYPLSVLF
The experiment is described as follows: TNAP enzyme activators, dose response, selectivity assay for human IAP activator project, biochemical, TNAP isozyme, human IAP uHTS hits (AID 488886).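 Further: potency of compounds raising TNAP activity as a selectivity check on IAP activators.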 Type of experiment: functional.

Experiment [25] has as its target T5, Intestinal-type alkaline phosphatase. Briefly: human IAP activators, dose response, biochemical, luminescent, uHTS hits, set 2 (AID 488817).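 Further: potency of activators that raise enzyme activity.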 It is filed as functional.
Experiment [26] concerns the target T7, Kappa-type opioid receptor (Homo sapiens, UniProt P41145). It is filed as functional.
In experiment [27] the target is T7, Kappa-type opioid receptor. It is filed as functional. The source holds these as a separate data set.
In experiment [28] the target is Beta-galactosidase (Escherichia coli, UniProt Q8VNN2). Type of experiment: functional.
The target of experiment [29] is T4, Delta-type opioid receptor. Briefly: HTS Image-Based Screen for Agonists of the DOR Receptor. [Related pubchem assays (depositor defined):AID1777, AID1786, AID2133]. It is filed as functional.
Experiment [30] concerns the target T3, Mu-type opioid receptor. Briefly: HTS Image-Based Screen for Agonists of the MOR Receptor. [Related pubchem assays (depositor defined):AID1777, AID1785, AID1786, AID2133]. Type of experiment: functional.
The target in experiment [31] is T4, Delta-type opioid receptor. Briefly: HTS Image-Based Screen for Antagonists of the DOR Receptor. [Related pubchem assays (depositor defined):AID1777, AID1785, AID1786, AID2133]. It is filed as functional.

Calls of active or inactive are those of the source.

T4 sequence (P41143 whole entry): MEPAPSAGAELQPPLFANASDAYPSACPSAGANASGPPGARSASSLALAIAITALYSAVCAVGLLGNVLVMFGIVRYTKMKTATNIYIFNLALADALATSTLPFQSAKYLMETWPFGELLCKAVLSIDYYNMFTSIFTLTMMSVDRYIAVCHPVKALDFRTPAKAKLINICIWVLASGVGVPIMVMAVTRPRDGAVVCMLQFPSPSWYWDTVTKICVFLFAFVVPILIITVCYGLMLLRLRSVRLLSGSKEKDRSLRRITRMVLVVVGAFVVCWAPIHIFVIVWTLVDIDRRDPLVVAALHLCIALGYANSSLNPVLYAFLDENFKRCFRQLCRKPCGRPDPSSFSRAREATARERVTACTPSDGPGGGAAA
T3 sequence (P35372 whole entry): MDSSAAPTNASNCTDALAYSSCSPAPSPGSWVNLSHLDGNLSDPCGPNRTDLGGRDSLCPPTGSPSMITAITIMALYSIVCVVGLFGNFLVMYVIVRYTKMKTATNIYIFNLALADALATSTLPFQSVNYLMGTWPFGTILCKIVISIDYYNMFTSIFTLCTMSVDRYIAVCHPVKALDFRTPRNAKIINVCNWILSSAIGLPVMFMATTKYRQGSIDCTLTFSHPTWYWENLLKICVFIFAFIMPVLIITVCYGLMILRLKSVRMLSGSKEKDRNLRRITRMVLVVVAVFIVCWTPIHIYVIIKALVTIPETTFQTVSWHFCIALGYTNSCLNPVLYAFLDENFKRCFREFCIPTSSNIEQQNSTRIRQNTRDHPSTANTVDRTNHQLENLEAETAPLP
T5 sequence (P09923 whole entry): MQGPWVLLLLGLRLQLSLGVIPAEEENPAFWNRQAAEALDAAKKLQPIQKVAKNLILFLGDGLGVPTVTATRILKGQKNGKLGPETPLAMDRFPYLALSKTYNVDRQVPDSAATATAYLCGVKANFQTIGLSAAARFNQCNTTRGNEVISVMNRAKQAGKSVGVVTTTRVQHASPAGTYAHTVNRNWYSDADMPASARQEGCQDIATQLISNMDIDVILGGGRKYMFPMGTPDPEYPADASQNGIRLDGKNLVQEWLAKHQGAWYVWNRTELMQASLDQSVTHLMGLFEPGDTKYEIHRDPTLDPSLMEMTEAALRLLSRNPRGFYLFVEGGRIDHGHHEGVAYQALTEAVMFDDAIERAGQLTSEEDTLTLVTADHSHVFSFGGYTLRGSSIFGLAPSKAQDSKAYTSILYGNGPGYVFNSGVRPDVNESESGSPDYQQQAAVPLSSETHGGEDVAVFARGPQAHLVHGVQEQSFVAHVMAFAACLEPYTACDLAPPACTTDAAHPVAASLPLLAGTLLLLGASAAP
T7 sequence (P41145 whole entry): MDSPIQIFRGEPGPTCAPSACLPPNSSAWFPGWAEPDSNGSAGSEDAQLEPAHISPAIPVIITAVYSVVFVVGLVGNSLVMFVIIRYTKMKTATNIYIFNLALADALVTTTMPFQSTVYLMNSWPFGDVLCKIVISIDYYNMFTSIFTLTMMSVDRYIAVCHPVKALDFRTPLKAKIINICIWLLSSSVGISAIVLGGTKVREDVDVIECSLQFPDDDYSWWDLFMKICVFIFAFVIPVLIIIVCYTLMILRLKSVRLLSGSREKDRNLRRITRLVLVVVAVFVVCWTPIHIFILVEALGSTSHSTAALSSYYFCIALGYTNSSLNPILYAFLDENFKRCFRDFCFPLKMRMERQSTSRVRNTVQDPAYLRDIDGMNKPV
Chain of Intestinal-type alkaline phosphatase (Mus musculus, UniProt P24822) (P24822 whole entry): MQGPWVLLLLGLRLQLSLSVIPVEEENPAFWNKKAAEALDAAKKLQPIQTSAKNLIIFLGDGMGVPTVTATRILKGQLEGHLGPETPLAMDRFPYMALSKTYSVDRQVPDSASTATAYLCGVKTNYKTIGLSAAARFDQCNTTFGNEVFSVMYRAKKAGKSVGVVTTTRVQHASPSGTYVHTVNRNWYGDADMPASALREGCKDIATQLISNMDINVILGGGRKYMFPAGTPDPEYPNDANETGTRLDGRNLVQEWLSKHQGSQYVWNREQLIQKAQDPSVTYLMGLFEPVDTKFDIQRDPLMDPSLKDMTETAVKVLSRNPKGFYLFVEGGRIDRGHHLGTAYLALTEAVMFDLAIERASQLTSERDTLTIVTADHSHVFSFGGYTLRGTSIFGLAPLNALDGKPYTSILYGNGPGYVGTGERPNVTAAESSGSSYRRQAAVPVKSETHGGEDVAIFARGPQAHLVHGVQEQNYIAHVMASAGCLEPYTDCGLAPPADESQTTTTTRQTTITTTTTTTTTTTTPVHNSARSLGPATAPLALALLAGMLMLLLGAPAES
Chain of Beta-galactosidase (Q8VNN2 whole entry): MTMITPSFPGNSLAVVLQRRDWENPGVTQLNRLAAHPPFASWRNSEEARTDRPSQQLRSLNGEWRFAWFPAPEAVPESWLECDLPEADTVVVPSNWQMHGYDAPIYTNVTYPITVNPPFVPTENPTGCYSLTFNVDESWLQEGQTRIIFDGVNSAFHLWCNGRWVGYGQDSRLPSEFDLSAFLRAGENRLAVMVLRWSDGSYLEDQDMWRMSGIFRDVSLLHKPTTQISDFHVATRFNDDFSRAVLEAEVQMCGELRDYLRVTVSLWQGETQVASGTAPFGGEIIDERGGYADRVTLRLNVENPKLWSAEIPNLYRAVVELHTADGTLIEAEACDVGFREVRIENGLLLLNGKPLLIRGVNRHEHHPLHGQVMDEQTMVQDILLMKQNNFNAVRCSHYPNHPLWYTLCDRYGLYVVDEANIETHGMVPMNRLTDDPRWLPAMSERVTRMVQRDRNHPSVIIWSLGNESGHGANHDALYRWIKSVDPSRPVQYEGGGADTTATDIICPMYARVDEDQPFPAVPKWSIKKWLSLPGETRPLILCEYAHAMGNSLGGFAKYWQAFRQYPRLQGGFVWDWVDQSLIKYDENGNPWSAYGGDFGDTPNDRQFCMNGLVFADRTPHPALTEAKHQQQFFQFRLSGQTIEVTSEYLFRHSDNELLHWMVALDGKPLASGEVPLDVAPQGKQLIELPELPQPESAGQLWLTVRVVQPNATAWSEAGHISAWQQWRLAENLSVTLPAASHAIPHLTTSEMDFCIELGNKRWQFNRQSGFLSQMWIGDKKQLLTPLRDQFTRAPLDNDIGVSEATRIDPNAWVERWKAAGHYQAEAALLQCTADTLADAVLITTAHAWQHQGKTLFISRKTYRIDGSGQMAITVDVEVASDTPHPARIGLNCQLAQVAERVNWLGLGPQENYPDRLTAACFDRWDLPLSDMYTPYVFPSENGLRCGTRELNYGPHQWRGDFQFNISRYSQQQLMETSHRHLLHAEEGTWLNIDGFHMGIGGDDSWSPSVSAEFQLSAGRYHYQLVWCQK
Chain of Tumor necrosis factor (P01375 whole entry, the tested form may be a part): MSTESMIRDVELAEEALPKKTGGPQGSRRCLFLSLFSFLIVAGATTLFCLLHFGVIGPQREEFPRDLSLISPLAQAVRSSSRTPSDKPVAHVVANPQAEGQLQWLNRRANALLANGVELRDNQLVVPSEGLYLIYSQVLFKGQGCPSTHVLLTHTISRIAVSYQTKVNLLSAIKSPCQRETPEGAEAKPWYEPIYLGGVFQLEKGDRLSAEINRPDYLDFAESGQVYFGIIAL
Chain of Nucleotide-binding oligomerization domain-containing protein 2 (Q9HC29 whole entry, the tested form may be a part): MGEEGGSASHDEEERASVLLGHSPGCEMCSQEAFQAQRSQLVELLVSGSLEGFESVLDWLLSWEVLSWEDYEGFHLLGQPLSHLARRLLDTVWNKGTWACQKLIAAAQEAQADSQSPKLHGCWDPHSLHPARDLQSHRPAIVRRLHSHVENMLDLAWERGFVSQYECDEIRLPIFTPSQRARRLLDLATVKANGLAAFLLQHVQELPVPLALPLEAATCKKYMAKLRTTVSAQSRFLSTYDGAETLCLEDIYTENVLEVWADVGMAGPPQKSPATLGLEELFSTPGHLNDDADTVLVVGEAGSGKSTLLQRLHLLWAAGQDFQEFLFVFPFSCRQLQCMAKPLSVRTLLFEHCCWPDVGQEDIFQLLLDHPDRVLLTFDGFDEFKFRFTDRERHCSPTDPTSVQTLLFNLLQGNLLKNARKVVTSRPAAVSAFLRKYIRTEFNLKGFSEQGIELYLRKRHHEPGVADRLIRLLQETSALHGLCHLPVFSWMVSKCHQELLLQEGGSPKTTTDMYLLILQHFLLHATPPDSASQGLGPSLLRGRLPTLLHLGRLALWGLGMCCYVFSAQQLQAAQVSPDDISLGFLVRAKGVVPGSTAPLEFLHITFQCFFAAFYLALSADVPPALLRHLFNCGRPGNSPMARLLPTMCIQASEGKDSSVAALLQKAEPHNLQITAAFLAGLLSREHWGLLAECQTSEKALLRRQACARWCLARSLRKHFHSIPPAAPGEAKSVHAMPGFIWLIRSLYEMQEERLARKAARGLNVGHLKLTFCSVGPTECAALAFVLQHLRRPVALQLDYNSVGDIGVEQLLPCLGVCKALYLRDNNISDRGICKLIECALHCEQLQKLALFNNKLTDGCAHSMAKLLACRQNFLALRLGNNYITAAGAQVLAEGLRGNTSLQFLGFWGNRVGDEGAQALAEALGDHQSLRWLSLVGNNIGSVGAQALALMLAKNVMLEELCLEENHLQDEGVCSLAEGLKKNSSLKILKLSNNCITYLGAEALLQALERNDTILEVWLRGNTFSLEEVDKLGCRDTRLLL
Chain of UDP-galactopyranose mutase (P9WIQ1 whole entry): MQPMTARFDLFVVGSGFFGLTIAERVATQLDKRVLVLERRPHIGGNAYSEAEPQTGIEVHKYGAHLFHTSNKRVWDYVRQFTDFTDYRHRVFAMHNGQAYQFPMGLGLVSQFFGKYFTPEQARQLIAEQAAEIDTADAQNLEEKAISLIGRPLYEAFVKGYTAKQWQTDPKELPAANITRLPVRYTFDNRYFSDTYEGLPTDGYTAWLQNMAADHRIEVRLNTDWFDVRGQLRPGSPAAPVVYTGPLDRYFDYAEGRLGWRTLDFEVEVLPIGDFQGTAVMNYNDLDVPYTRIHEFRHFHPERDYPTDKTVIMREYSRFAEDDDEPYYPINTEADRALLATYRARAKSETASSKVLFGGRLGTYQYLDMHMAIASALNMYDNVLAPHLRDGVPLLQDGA

Take `O=C(/C=C/c1cccs1)Nc1sc2c(c1C(=O)O)CCCC2`: the EC50 in experiment [1] is 8.28 µM (active); in experiment [3] it was > 20 µM (inactive). Moreover, the IC50 is > 20 µM (inactive) in [2]; > 20 µM (inactive) in [4]; > 20 µM (inactive) in [5]; 6.42 µM (active) in experiment [6]; > 20 µM (inactive) in experiment [7]; > 20 µM (inactive) in experiment [8]. The IC50 in [9] is > 20 µM (inactive).

For the compound `COCCCNC(=O)Cn1cc(/C=C2\C(=O)NC(=O)N(c3ccccc3F)C2=O)c2ccccc21`, the AC50 in experiment [10] was 43.7 µM (active).

For the compound `CC(C)Cc1csc(NC(=O)c2ccc(F)cc2)c1C(=O)O`, the EC50 in experiment [11] is > 53 µM (inactive); in experiment [17], 9.87 µM (active). Besides, the half-maximal activity concentration (AC50) is 25.9 µM (active) in experiment [12] and 52.3 µM (active) in experiment [15]. Moreover, the IC50 in [13] was 10.3 µM (active); in experiment [14], > 20 µM (inactive); in experiment [16], 36.3 µM (active).

As for `Clc1ccc(CSc2nnc(-c3ccccn3)n2Cc2ccco2)cc1Cl`, the EC50 in [18] and in experiment [20] was > 32 µM (inactive) throughout. Moreover, the IC50 in experiment [19] and in experiment [21] was > 32 µM (inactive) each time.

Consider `CSCCC(NS(=O)(=O)c1ccccc1F)C(=O)NNC(=O)c1csc(N2CCOCC2)n1` (stereo unspecified), for which the EC50 in experiment [22] is 8.88 µM (active); in experiment [24], 26.4 µM (active); in experiment [25], 10.6 µM (active). Besides, the IC50 in experiment [23] is 70.1 µM (active).

With `CCCN(CCC)CC(O)Cn1cc(/C=C/C(=O)c2cccs2)c2ccccc21` (stereo unspecified), the results for the IC50 in experiment [26], in experiment [27] and in experiment [31] were 11.3 µM (active), 4.14 µM and > 32 µM (inactive), respectively. Moreover, the EC50 in [28] is > 31.5 µM (inactive); in experiment [29] it was > 32 µM (inactive); in [30], > 32 µM (inactive).
